Test results taken from article PMC5267425, “Identification of small molecule modulators of HIV-1 Tat and Rev protein accumulation” (Retrovirology, 2017).

Legend:
[1] = XTT assay, SupT1 24STNLESG cells; type: cell-based; details: human
Method: Additional file 1: Figure S1. 791 and 833 Suppress HIV-1 Gene Expression in SupT1 24NESLG Cell Line. a Schematic of HIV-1 provirus used to generated the stably transduced SupT1 cell line. b Effect of 791 and 833 on Gag expression in SupT1 NLESG cells. Cells were treated with indicated concentrations of 791/833 then HIV-1 expression induced by PMA addition. Media harvested after 24 h was subsequently assayed using Gag (p24) ELISA. Cell viability was measured by an XTT assay. 892 was not active in this cell line at the concentrations tested Additional file 2: Figure S7. Effect of compounds on CEM-GXR cell viability. Evaluation of 791, 833, and 892 on CEM-GXR cell viability in the Guava ViaCount assay. Cells were analyzed after 24 h incubation with the compounds at the indicated concentrations ranging between 0–47 μM (791), 0–5 μM (833), or 0–62.5 μM (892). Results are expressed as the percentage (%) of viable cells relative to DMSO treatment ±SEM of two independent experiments performed in triplicate. […] Images are cropped to show a representative field of view. b The dose range of the compounds which inhibit HIV-1 GagGFP expression in HeLa rtTA HIVGagGFP C7 cells was measured by mean fluorescence intensity and expressed relative to fluorescence intensity in DMSO-treated samples (N ≥ 3, *p ≤ 0.05, **p ≤ 0.01, and ***p ≤ 0.001). […]

HeLa rtTA HIV∆Mls cells = experiment: Trypan blue exclusion, HeLa; type: cell-based; details: up to 10 µM
Method: Effects of compound treatment on cellular metabolism was assessed by an XTT-based in vitro toxicology assay kit (Sigma-Aldrich) or Trypan blue exclusion (Life Technologies) as proxy for degree of cytotoxicity and expressed relative to DMSO control treatment. For measurement of cell viability using XTT, culture media was removed after 24, 72, and 96 h of compound treatment, replaced with 20% XTT solution and incubated at 37 °C in a 5% CO2 humidified incubator for 2–6 h, and relative cell viability was measured in compound treated cells relative to DMSO-treated cells. Cell viability measurements in CEM-GXR cells are described above.

PBMCs = experiment: Trypan blue exclusion, PBMCs; type: cell-based, human; details: PBMCs
Method: To examine the effect of compounds on viral replication, studies were carried out in peripheral blood mononuclear cells (PBMCs). PBMCs were isolated from healthy (HIV-uninfected) volunteer blood donors as described by Dobson-Belaire et al.. Informed consent was obtained from participants in accordance with the guidelines for conduct of clinical research at the University of Toronto and St. Michael’s Hospital, Toronto, Ontario, Canada. Stored PBMCs were thawed, washed with RPMI 1640 complete medium and cultured in RPMI 1640 complete medium containing 2 μg/mL of PHA-L (Sigma-Aldrich) and 20 U/mL of IL-2 (BD Pharmingen) for 72 h. Subsequently, cells were counted and a portion of the cells was separated to another tube for uninfected control treatments. The remaining PBMCs were resuspended in media containing HIV-1 BaL at a multiplicity of infection (MOI) of approximately 0.01 and infected by spinoculation, following which cells were washed twice with room temperature RPMI 1640 complete medium and resuspended to a concentration of 5 × 10^5 cells/mL in complete RPMI 1640 containing 20 U/mL of IL-2. Compounds were added to infected PBMCs or uninfected control PBMCs. Azidothymidine (AZT, Sigma-Aldrich) was used as control treatment at a final concentration of 3.74 μM. On day 4 post infection, culture medium was replenished with the compounds and IL-2 in fresh complete RPMI 1640. On days 2, 4, 6 and 8 post infection, culture supernatant was harvested, virus lysed by adjusting to 1% TritonX-100 and stored at −20 °C for p24 antigen ELISA. A fraction of the culture was harvested to assess percent cell viability by trypan blue exclusion using Glasstic slides (Kova). Relative percent cell viability in compound treated samples versus DMSO-control treated samples was calculated as follows: (total viable cells/total cells)compound/(total viable cells/total cells)DMSO.

Compound | CC50 at 24 h [1] [µM] | Trypan blue exclusion (HeLa rtTA HIV∆Mls cells) | toxicity at concentrations required to block HIV-1 replication (PBMCs)
Cc1cc(NCc2cccnc2)n2ncc(-c3ccc(Cl)cc3)c2n1 [Compound 791, 3-(4-chlorophenyl)-5-methyl-N-(3-pyridinylmethyl)pyrazolo[1,5-a]pyrimidin-7-amine] | > 60 |  | 
O=C(NC(=S)NNC(=O)c1ccccc1O)c1ccc(-c2ccccc2)cc1 [Compound 833, N-([2-(2-hydroxybenzoyl)hydrazino]carbonothioyl}-4-biphenylcarboxamide] | > 20 | no change | displayed toxicity
COc1ccc(C=NNC(=O)c2ccccc2O)cc1O [Compound 892, 2-hydroxy-N′-(3-hydroxy-4-methoxybenzylidene)benzohydrazide] |  |  | displayed toxicity
